Reference: US20260130879A1 (IMMUNIC AG, priority 2023, published 2026)
Entries after “also recorded” stand apart in the source; their conditions may differ. Structures can show the parent of a compound that is named as a salt.

Assays:
[1] = system: vesicular amino acid transporter 2 (VMAT2); assay: Nurr1 regulated gene expression of VMAT2 in T98G cells (qPCR); type: cell-based; details: 16 h
Method: (§1) . After 16 h of incubation the medium was removed, cells were washed with phosphate buffered saline (PBS) and after full aspiration of residual liquids immediately frozen at −80° C., until further procession. Total RNA was isolated using E.Z.N.A.® Total RNA Kit I (Omega Bio-tek. Norcross. USA) following the manufacturer's instructions. RNA concentration and purity was assessed using a NanoDrop™ One UV/VIS spectrophotometer (Thermo Fisher Scientific. Waltham. USA) at 260/280 nm. Right before reverse transcription (RT), RNA was linearized at a concentration of 133 ng/μL at 65° C., for 10 min and then immediately incubated on ice for at least 1 min. Reverse transcription was performed using 2 μg total RNA, 20 U Recombinant RNasin® Ribonuclease Inhibitor (Promega, Mannheim, Germany), 100 U SuperScript IV Reverse Transcriptase including 5× First Strand Buffer and 0.1 M dithiothreitol (Thermo Fisher Scientific, Waltham, USA), 3.75 ng linear acrylamide. […] Quantitative polymerase chain reaction (qPCR) was conducted using an Applied Biosystems™ QuantStudio 1 (Waltham, USA) and a SYBR green based detection method. […] PCR product specificity was evaluated using a melting curve analysis ranging from 65 to 95° C. […]

[2] = system: tyrosine hydroxylase (TH); assay: Nurr1 regulated gene expression of TH in T98G cells (qPCR); type: cell-based; details: 16 h
Method: as §1

[3] = system: N2A; assay: Apoptosis assay in N2A cells (TNFα and CHX); type: cell-based, murine; details: pretreated 1 h, TNFα 50 ng/ml and CHX 20 μg/mL for 6 hours
Method: (§2) Cell viability was assessed by flow cytometry after staining the cells with Annexin V and a live/dead dye. Alive cells are defined as […].

[4] = system: SH-SY5Y; assay: Apoptosis assay in SH-SY5Y cells (TNFα and CHX); type: cell-based, human; details: pretreated 1 h, TNFα 50 ng/ml and CHX 20 μg/mL for 6 hours
Method: as §2

[5] = system: RRMS patients; details: 12 weeks or 24 weeks; cited from earlier work
[6] = system: brain lesions; details: animal model of RRMS; cited from earlier work
[7] = system: neurofilament light polypeptide (NFL); assay: Serum neurofilament (NFL) in Phase 2 study in relapsing-remitting multiple sclerosis, patients with no relapses; type: in vivo, human; details: after 24 weeks, RRMS patients with no relapses
Method: […]. The study was carried out in accordance with current ICH E6 (Good Clinical Practice) guidelines and the EMA Reflection paper for laboratories that perform the analysis or evaluation of clinical trial samples (EMA/INS/GCP/532137/2010, 28 Feb. 2012). The sample analysis was performed on a Meso QuickPlex SQ 120 analyzer by an ECLIA technique using a validated method.
In order to confirm an effect of IMU-838 on the plasma levels of NFL the subgroup of patients with no relapses was investigated

[8] = system: BDNF; assay: Induction of BDNF in LPS-stimulated human PBMCs (ELISA); type: cell-based; details: 3 μM, supernatant 14 h
[9] = system: Nurr1 target genes; assay: Microarray gene expression in stimulated human PBMCs; type: cell-based; details: anti-CD3/anti-CD28 stimulated human PBMCs, 20 h
Method: Human PBMC isolation was performed similarly as described above. […] Four biological replicates were used per condition. Cells were detached from the cell culture plates by using MACS buffer, were washed with PBS and then resuspended in RLT buffer for subsequent RNA isolation with RNAeasy Mini Kit (Quiagen). 100 ng total RNA per sample were introduced into an RT-IVT reaction. Prior to RT-IVT, the total RNA samples were spiked with in-vitro synthesized polyadenylated transcripts (One-Color RNA Spike-In Mix, Agilent Technologies), which serves as an internal labeling control for linearity, sensitivity and accuracy. The spiked total RNA was reverse transcribed into cDNA and then converted into labeled cRNA by in vitro transcription (Low Input Quick-Amp Labeling Kit One-Color, Agilent Technologies) incorporating Cyanine-3-CTP. All steps were carried out according to the manufacturer's instructions. […] Afterwards, microarrays were washed with increasing stringency using Gene Expression Wash Buffers (Agilent Technologies) followed by drying with acetonitrile (SIGMA). […] Differential gene expression was identified by applying appropriate biostatistics to the data set. GeneSpring GX11 analysis software was used to normalize and analyze the raw data. […] The induced and repressed genes were further characterized for involvement in functional categories (biological processes, molecular functions, cellular components, protein classes and pathways) based on the PANTHER database.

[10] = system: NFL; details: EXPAND, 12-month; cited from earlier work

Structure (SMILES): COc1cccc(-c2ccc(NC(=O)C3=C(C(=O)O)CCC3)c(F)c2)c1 [Example 1, vidofludimus]
- gene expression on vesicular amino acid transporter 2 (VMAT2) [1]: dose-dependent gene expression
- gene expression on tyrosine hydroxylase (TH) [2]: dose-dependent gene expression

Structure (SMILES): C#CCOc1cccc(-c2ccc(NC(=O)C3=C(C(=O)O)CCC3)c(F)c2)c1 [Example 3, 2-((3-Fluoro-3′-(prop-2-yn-1-yloxy)-[1,1′-biphenyl]-4-yl)carbamoyl)cyclopent-1-ene-1-carboxylic acid]
- gene expression on vesicular amino acid transporter 2 (VMAT2) [1]: dose-dependent activation; also recorded: dose-dependent gene expression
- induction of apoptosis, N2A [3]: induction of apoptosis was reduced
- induction of apoptosis, SH-SY5Y [4]: induction of apoptosis was reduced
- gene expression on tyrosine hydroxylase (TH) [2]: dose-dependent gene expression

Structure (SMILES): COc1cccc(-c2ccc(NC(=O)C3=C(C(=O)O)CCC3)c(F)c2)c1 [vidofludimus calcium, vidofludimus calcium salt dihydrate]
- rate of confirmed disability worsening over time vs placebo [5]: lower rate of confirmed disability worsening
- unique active brain lesions vs placebo [5]: significantly fewer unique active brain lesions
- reduction in brain lesions vs control treatment [6]: greater reduction in brain lesions

Structure (SMILES): COc1cccc(-c2ccc(NC(=O)C3=C(C(=O)O)CCC3)c(F)c2)c1 [IMU-838, vidofludimus calcium]
- mean change of NFL (reduction) [7]: 18%
- BDNF production [8]: BDNF is produced
- Upregulation A2M [9]: 1.6
- Upregulation BHLHE41 [9]: 1.5
- Upregulation CFB [9]: 2.4
- Upregulation HSD11B1 [9]: 2.5
- Upregulation LTA [9]: 2.0
- Upregulation MARCO [9]: 2.6
- Upregulation NCAM [9]: 1.6

Structure (SMILES): CCc1cc(/C(C)=N/OCc2ccc(C3CCCCC3)c(C(F)(F)F)c2)ccc1CN1CC(C(=O)O)C1 [siponimod]
- effect on neurofilament, non-active SPMS [10]: little or no effect on neurofilament
